In patent US8993574B2, “Pyrrole antifungal agents” (F2G Ltd, priority 2008, dated 2015):
In brackets after ≈: the same amount, converted by molar mass.

How the values were obtained:
Assay type in all cases: cell-based
[1] = test system: Aspergillus fumigatus AF210; assay: MIC, YAG medium; details: Aspergillus fumigatus, 24 h at 35° C, MIC banded into grades, read-out: MIC grade, A. fumigatus 210
Method: (§1) Between 1 and 5 mgs of compound were accurately weighed out into a sterile Eppendorf tube. The compound was dissolved in DMSO to give a solution containing 5 mg/mL. Tubes were stored at −20° C. until required.
(§2) On the day of testing thawed solutions were vortex mixed to ensure homogeneity. 30 μL of solution was removed and added to 570 μL of sterile water in a separate sterile Eppendorf. The thoroughly mixed solution was used to prepare a series of doubling dilutions in water, in a deep well plate. Thirteen replicate plates were prepared using a Minitrak by aspirating 20 μL from each well into eleven clear polystyrene 96 well plates.
(§3) Spores of Aspergillus spp. (Aspergillus fumigatus [two strains], Aspergillus terreus [two strains], Aspergillus niger and Aspergillus flavus) were harvested from cultures grown on Sabarauds agar for 5 days, and resuspended in PBS/Tween 80 to approx 1×10^7 cfu/mL. Each organism suspension was diluted in YAG medium (1% glucose, 1% ammonium chloride and 0.5% yeast extract) to 0.5−2×10^4 cfu/mL. 80 μL of an organism suspension was added to each well of the plate containing drug dilutions.
(§4) This produced MIC plates with a drug range 50-0.05 mg/L and organism inocula of 1−2×10^4 cfu/mL for Aspergillus spp. All plates were incubated for 24 h at 35° C. Growth was assessed by monitoring the optical density at 485 nm for each well. The MIC of a compound is the lowest drug concentration that inhibits growth of an organism by >70% compared with a drug free control. MICs are recorded as mg/L. In cases where the MIC of an organism is […] mg/L the MIC is repeated using a concentration range of 0.5-0.0005 mg/L.
(§5) The following organisms were tested: Aspergillus flavus, Aspergillus fumigatus AF293 and AF210, Aspergillus niger, Aspergillus terreus AT4 and AT49, Candida albicans, Candida glabrata, Candida krusei, Candida parapsilosis and Candida tropicalis.

Aspergillus niger [2] = assay: MIC, YAG medium; details: Aspergillus niger, 24 h at 35° C, MIC banded into grades, read-out: MIC grade, A. niger
Method: as §1, §2, §3, §4, §5

Aspergillus terreus AT4 [3] = assay: MIC, YAG medium; details: Aspergillus terreus, 24 h at 35° C, MIC banded into grades, read-out: MIC grade, A. terreus
Method: as §1, §2, §3, §4, §5

[4] = test system: Aspergillus fumigatus AF293; assay: MIC, YAG medium; details: Aspergillus fumigatus, 24 h at 35° C, MIC banded into grades, read-out: MIC grade, A. fumigatus
Method: as §1, §2, §3, §4, §5

Aspergillus terreus AT49 [5] = assay: MIC, YAG medium; details: Aspergillus terreus, 24 h at 35° C, MIC banded into grades, read-out: MIC grade, A. terreus 49
Method: as §1, §2, §3, §4, §5

Aspergillus flavus [6] = assay: MIC, YAG medium; details: 24 h at 35° C, MIC banded into grades; for MIC: Aspergillus flavus, 24 h, read-out: MIC grade, A. flavus
Method: as §1, §2, §3, §4, §5

[7] = test system: Aspergillus fumigatus AF210; assay: MIC, RPMI medium; details: Aspergillus fumigatus, AF210, MIC banded into grades, read-out: MIC grade, A. fumigatus 210
Method: as §1, §2
(§6) Assays were also performed in RPMI medium for both Aspergillus spp. (strains described above) and Candida spp. (Candida albicans, Candida glabrata, Candida krusei, Candida parapsilosis and Candida tropicalis). To perform MIC tests in this medium, dilutions of compounds are prepared in microtitre plates as described above. Fungal strains to be tested are grown and harvested in an identical manner to that described above, and each organism suspension was diluted in RPMI medium, containing 2% glucose and 0.135 M MOPS buffer (pH 7.0) to 0.5-2×10^4 cfu/mL, rather than in YAG medium. 80 μL of an organism suspension was added to each well of the plate containing drug dilutions.
(§7) This produced MIC plates with a drug range 50-0.05 mg/L and organism inocula of 1−2×10^4 cfu/mL. All plates were incubated for 24-48 h at 35° C. Growth was assessed by monitoring the optical density at 485 nm for each well. The MIC of a compound is the lowest drug concentration that inhibits growth of an organism by >80% compared with a drug free control.
as §5

Aspergillus niger [8] = assay: MIC, RPMI medium; details: Aspergillus niger, MIC banded into grades, read-out: MIC grade, A. niger
Method: as §1, §2, §6, §7, §5

Aspergillus terreus AT4 [9] = assay: MIC, RPMI medium; details: Aspergillus terreus, AT4, MIC banded into grades, read-out: MIC grade, A. terreus
Method: as §1, §2, §6, §7, §5

[10] = test system: Aspergillus fumigatus AF293; assay: MIC, RPMI medium; details: Aspergillus fumigatus, AF293, MIC banded into grades, read-out: MIC grade, A. fumigatus
Method: as §1, §2, §6, §7, §5

Aspergillus terreus AT49 [11] = assay: MIC, RPMI medium; details: Aspergillus terreus, AT49, MIC banded into grades, read-out: MIC grade, A. terreus 49
Method: as §1, §2, §6, §7, §5

Aspergillus flavus [12] = assay: MIC, RPMI medium; details: Aspergillus flavus, MIC banded into grades, read-out: MIC grade, A. flavus
Method: as §1, §2, §6, §7, §5

SMILES	MIC [1] [µg/mL]	MIC (Aspergillus niger [2]) [µg/mL]	MIC (Aspergillus terreus AT4 [3]) [µg/mL]	MIC [4] [µg/mL]	MIC (Aspergillus terreus AT49 [5]) [µg/mL]	MIC (Aspergillus flavus [6]) [µg/mL]	MIC [7] [µg/mL]	MIC (Aspergillus niger [8]) [µg/mL]	MIC (Aspergillus terreus AT4 [9]) [µg/mL]	MIC [10] [µg/mL]	MIC (Aspergillus terreus AT49 [11]) [µg/mL]	MIC (Aspergillus flavus [12]) [µg/mL]	MIC grade, A. flavus (Aspergillus flavus [6])
CCn1ccc2c(F)c(NC(=O)C(=O)c3c(-c4ccccc4)cc(C)n3C)ccc21 [Example 128, 2-(1,5-Dimethyl-3-phenyl-1H-pyrrol-2-yl)-N-(1-ethyl-4-fluoro-1H-indol-5-yl)-2-oxo-acetamide]	< 1	< 1	< 1	< 1	< 1	< 1	< 1	< 1	< 1	< 1	< 1	< 1	
Cc1cc(C)nc(N2CCN(c3ccc(NC(=O)C(=O)c4c(-c5ccccc5)c(F)c(C)n4C)cc3)CC2)c1 [Example 90, N-{4-[4-(4,6-Dimethyl-pyridin-2-yl)-piperazin-1-yl]-phenyl}-2-(4-fluoro-1,5-dimethyl-3-phenyl-1H-pyrrol-2-yl)-2-oxo-acetamide]	< 1	< 1	< 1	< 1	< 1	< 1	< 1	< 1	< 1	< 1	< 1	< 1	
COCCn1c(C)cc(-c2ccccc2)c1C(=O)C(=O)Nc1ccc(N2CCN(c3cc(C)cc(C)n3)CC2)cc1Cl [Example 26, N-{2-Chloro-4-[4-(4,6-dimethyl-pyridin-2-yl)-piperazin-1-yl]-phenyl}-2-[1-(2-methoxy-ethyl)-5-methyl-3-phenyl-1H-pyrrol-2-yl]-2-oxo-acetamide]	< 1	< 1	< 1	< 1	< 1		< 1	< 1	> 10	< 1	> 10	> 10	1 (a grade of 1 represents an MIC of greater than 10 mg/L)
Cc1cc(-c2ccccc2)c(C(=O)C(=O)Nc2ccc(-c3ncco3)c(F)c2)n1C [Example 148, 2-(1,5-Dimethyl-3-phenyl-1H-pyrrol-2-yl)-N-[3-fluoro-4-oxazole-2-yl-phenyl)-2-oxo-acetamide]	< 1	< 1	< 1	< 1	< 1	< 1	1 to 10 (≈ 2.48 to 24.8 µM)	< 1	< 1	< 1	< 1	< 1	
CCCOCCn1c(C)cc(-c2ccccc2)c1C(=O)C(=O)Nc1ccc(N2CCN(c3cc(C)cc(C)n3)CC2)cc1 [Example 140, N-{4-[4-(4,6-Dimethyl-pyridin-2-yl)-piperazin-1-yl]-phenyl}-2-[5-methyl-3-phenyl-1-(2-propoxy-ethyl)-1H-pyrrol-2-yl]-2-oxo-acetamide]	< 1	1 to 10 (≈ 1.72 to 17.2 µM)	1 to 10 (≈ 1.72 to 17.2 µM)	1 to 10 (≈ 1.72 to 17.2 µM)	1 to 10 (≈ 1.72 to 17.2 µM)	1 to 10 (≈ 1.72 to 17.2 µM)	> 10	> 10	> 10	> 10	> 10	> 10	
COCCn1ccc(-c2cccs2)c1C(=O)C(=O)Nc1ccc(N2CCN(c3cc(C)cc(C)n3)CC2)cc1 [Example 67, N-{4-[4-(4,6-Dimethyl-pyridin-2-yl)-piperazin-1-yl]-phenyl}-2-[1-(2-methoxy-ethyl)-3-thiophen-2-yl-1H-pyrrol-2-yl]-2-oxo-acetamide]	< 1	1 to 10 (≈ 1.84 to 18.4 µM)	< 1	< 1	< 1	< 1	1 to 10 (≈ 1.84 to 18.4 µM)	> 10	< 1	1 to 10 (≈ 1.84 to 18.4 µM)	< 1	1 to 10 (≈ 1.84 to 18.4 µM)	
Cc1cc(C)nc(N2CCN(c3ccc(NC(=O)C(=O)c4c(C(C)C)cc(C)n4C)cc3)CC2)c1 [Example 14, N-{4-[4-(4,6-Dimethyl-pyridin-2-yl)-piperazin-1-yl]-phenyl}-2-(3-isopropyl-1,5-dimethyl-1H-pyrrol-2-yl)-2-oxo-acetamide]	< 1	< 1	< 1	< 1	< 1	< 1	< 1	< 1	< 1	< 1	< 1	< 1	
COCc1cc(-c2ccccc2)c(C(=O)C(=O)Nc2ccc(N3CCN(c4cc(C)cc(C)n4)CC3)cc2)n1COC [Example 131, 2-(1,5-Bis-methoxymethyl-3-phenyl-1H-pyrrol-2-yl)-N-{4-[4-(4,6-dimethyl-pyridin-2-yl)-piperazine-1-yl]-phenyl}-2-oxo-acetamide]	1 to 10 (≈ 1.76 to 17.6 µM)	1 to 10 (≈ 1.76 to 17.6 µM)	1 to 10 (≈ 1.76 to 17.6 µM)	1 to 10 (≈ 1.76 to 17.6 µM)	1 to 10 (≈ 1.76 to 17.6 µM)	1 to 10 (≈ 1.76 to 17.6 µM)	> 10	1 to 10 (≈ 1.76 to 17.6 µM)	1 to 10 (≈ 1.76 to 17.6 µM)	> 10	1 to 10 (≈ 1.76 to 17.6 µM)	> 10	
COCCCn1c(C)cc(-c2ccccc2)c1C(=O)C(=O)Nc1ccc(N2CCN(c3cc(C)cc(C)n3)CC2)cc1 [Example 28, N-{4-[4-(4,6-Dimethyl-pyridin-2-yl)-piperazin-1-yl]-phenyl}-2-[1-(3-methoxy-propyl)-5-methyl-3-phenyl-1H-pyrrol-2-yl]-2-oxo-acetamide]	< 1	< 1	< 1	< 1	< 1	1 to 10 (≈ 1.77 to 17.7 µM)	< 1	< 1	1 to 10 (≈ 1.77 to 17.7 µM)	< 1	1 to 10 (≈ 1.77 to 17.7 µM)	1 to 10 (≈ 1.77 to 17.7 µM)	
